The test deals with BDF1 mice, s.c. Lewis lung carcinoma, T/C %. Nature of the test: NCI In Vivo Anticancer Drug Screen. Data for tumor model Lewis Lung Carcinoma (subcutaneous) in B6D2F1 (BDF1) mice. In outline: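 Antitumor effect in vivo is scored from survival or tumor burden, reported as treated relative to vehicle controls.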
Setting [1] is: endpoint: median survival time, dose: 4.0 mg/kg/injection, schedule: Q01DX009 (ip), vehicle: saline, higher = longer survival.

Data on 9 compounds can be found in PubChem BioAssay AID270 (DTP/NCI, 2004).

Several values for one entry are separate records, joined by “and”; a condition that tells them apart may be missing. Equal entries are not always repeated. Inconclusive results are not listed.

Take `CC(=O)OCC(=O)[C@@]1(O)CC[C@H]2[C@@H]3C[C@H](C)C4=CC(=O)C=C[C@]4(C)[C@@]3(Br)[C@@H](O)C[C@@]21C`: the T/C is, setting by setting: (endpoint: mean tumor weight, dose: 0.56 mg/kg/injection, schedule: Q01DX011 (sc), vehicle: steriod suspending solution, higher = larger tumour) 89 % of control; (endpoint: mean tumor weight, dose: 1.12 mg/kg/injection, schedule: Q01DX011 (sc), vehicle: steriod suspending solution, higher = larger tumour) 69 % of control; (endpoint: mean tumor weight, dose: 4.5 mg/kg/injection, schedule: Q01DX011 (sc), vehicle: steriod suspending solution, higher = larger tumour) 57 % of control and 72 % of control; (endpoint: mean tumor weight, dose: 5.3 mg/kg/injection, schedule: Q01DX011 (sc), vehicle: steriod suspending solution, higher = larger tumour) 50 % of control; (endpoint: mean tumor weight, dose: 7.9 mg/kg/injection, schedule: Q01DX011 (sc), vehicle: steriod suspending solution, higher = larger tumour) 45 % of control; (endpoint: mean tumor weight, dose: 9.0 mg/kg/injection, schedule: Q01DX011 (sc), vehicle: steriod suspending solution, higher = larger tumour) 52 % of control. Further, the T/C is 31 % of control (endpoint: mean tumor weight, dose: 11.8 mg/kg/injection, schedule: Q01DX011 (sc), vehicle: steriod suspending solution, higher = larger tumour); 44 % of control (endpoint: mean tumor weight, dose: 17.7 mg/kg/injection, schedule: Q01DX011 (ip), vehicle: carboxymethylcellulose (CMC), higher = larger tumour); 28 % of control and 38 % of control (endpoint: mean tumor weight, dose: 17.7 mg/kg/injection, schedule: Q01DX011 (sc), vehicle: steriod suspending solution, higher = larger tumour); 42 % of control (endpoint: mean tumor weight, dose: 18.0 mg/kg/injection, schedule: Q01DX011 (sc), vehicle: steriod suspending solution, higher = larger tumour); 48 % of control (endpoint: mean tumor weight, dose: 26.6 mg/kg/injection, schedule: Q01DX011 (ip), vehicle: carboxymethylcellulose (CMC), higher = larger tumour); 37 % of control (endpoint: mean tumor weight, dose: 26.6 mg/kg/injection, schedule: Q01DX011 (sc), vehicle: steriod suspending solution, higher = larger tumour). The T/C was 37 % of control (endpoint: mean tumor weight, dose: 27.0 mg/kg/injection, schedule: Q01DX011 (sc), vehicle: steriod suspending solution, higher = larger tumour); 13 % of control (endpoint: mean tumor weight, dose: 40.0 mg/kg/injection, schedule: Q01DX011 (ip), vehicle: carboxymethylcellulose (CMC), higher = larger tumour); 32 % of control (endpoint: mean tumor weight, dose: 40.0 mg/kg/injection, schedule: Q01DX011 (sc), vehicle: steriod suspending solution, higher = larger tumour); 59 % of control (endpoint: mean tumor weight, dose: 50.0 mg/kg/injection, schedule: Q01DX011 (ip), vehicle: carboxymethylcellulose (CMC), higher = larger tumour); 6 % of control (endpoint: mean tumor weight, dose: 60.0 mg/kg/injection, schedule: Q01DX011 (ip), vehicle: carboxymethylcellulose (CMC), higher = larger tumour); 34 % of control (endpoint: mean tumor weight, dose: 60.0 mg/kg/injection, schedule: Q01DX011 (sc), vehicle: steriod suspending solution, higher = larger tumour).

Take `COC(=O)[C@@]12OC[C@]34[C@H]([C@@H](O)[C@@H]1O)[C@@]1(C)CC(=O)C(O)=C(C)[C@@H]1C[C@H]3OC(=O)[C@H](OC(=O)/C=C(\C)C(C)C)[C@@H]24`: the T/C by setting is: (endpoint: median survival time, dose: 0.12 mg/kg/injection, schedule: Q01DX009 (ip), vehicle: other, higher = longer survival) 99 % of control; (endpoint: median survival time, dose: 0.25 mg/kg/injection, schedule: Q01DX009 (ip), vehicle: other, higher = longer survival) 91 % of control; (endpoint: median survival time, dose: 0.5 mg/kg/injection, schedule: Q01DX009 (ip), vehicle: other, higher = longer survival) 92 % of control; (endpoint: median survival time, dose: 1.0 mg/kg/injection, schedule: Q01DX009 (ip), vehicle: other, higher = longer survival) 91 % of control; (endpoint: median survival time, dose: 2.0 mg/kg/injection, schedule: Q01DX009 (ip), vehicle: other, higher = longer survival) 87 % of control.

For `O=C(O)CCC(=O)O`, the T/C by setting is: (endpoint: median survival time, dose: 0.62 mg/kg/injection, schedule: Q01DX009 (ip), vehicle: water, higher = longer survival) 110 % of control; (endpoint: median survival time, dose: 1.25 mg/kg/injection, schedule: Q01DX009 (ip), vehicle: water, higher = longer survival) 103 % of control; (endpoint: median survival time, dose: 2.5 mg/kg/injection, schedule: Q01DX009 (ip), vehicle: water, higher = longer survival) 93 % of control; (endpoint: median survival time, dose: 5.0 mg/kg/injection, schedule: Q01DX009 (ip), vehicle: water, higher = longer survival) 93 % of control and 108 % of control; (endpoint: median survival time, dose: 10.0 mg/kg/injection, schedule: Q01DX009 (ip), vehicle: water, higher = longer survival) 102 % of control and 107 % of control; (endpoint: median survival time, dose: 20.0 mg/kg/injection, schedule: Q01DX009 (ip), vehicle: water, higher = longer survival) 106 % of control and 115 % of control and 97 % of control. Further, the T/C by setting is: (endpoint: median survival time, dose: 40.0 mg/kg/injection, schedule: Q01DX009 (ip), vehicle: water, higher = longer survival) 96 % of control and 103 % of control and 108 % of control; (endpoint: median survival time, dose: 80.0 mg/kg/injection, schedule: Q01DX009 (ip), vehicle: water, higher = longer survival) 104 % of control.

With `CC(=O)NC(Cc1ccc(N(CCCl)CCCl)cc1)C(=O)O` (stereo not drawn), the T/C was 104 % of control (endpoint: median survival time, dose: 3.13 mg/kg/injection, schedule: Q01DX009 (ip), vehicle: other, higher = longer survival); 120 % of control (endpoint: median survival time, dose: 6.25 mg/kg/injection, schedule: Q01DX009 (ip), vehicle: other, higher = longer survival); 114 % of control (endpoint: median survival time, dose: 25.0 mg/kg/injection, schedule: Q01DX009 (ip), vehicle: other, higher = longer survival).

As to `O=NN(CCCl)C(=O)N[C@H]1CCCC[C@H]1Cl`, the T/C (endpoint: median survival time, dose: 22.5 mg/kg/injection, schedule: Q01DX001 (ip), vehicle: Klucel (hydroxypropylcellulose) (HPC), higher = longer survival) was 106 % of control; the T/C (endpoint: median survival time, dose: 360.0 mg/kg/injection, schedule: Q01DX001 (ip), vehicle: Klucel (hydroxypropylcellulose) (HPC), higher = longer survival) was 102 % of control; the T/C (endpoint: median tumor weight (est.), dose: 45.0 mg/kg/injection, schedule: Q01DX001 (ip), vehicle: carboxymethylcellulose (CMC), higher = larger tumour) was 89 % of control; the T/C (endpoint: median tumor weight (est.), dose: 90.0 mg/kg/injection, schedule: Q01DX001 (ip), vehicle: carboxymethylcellulose (CMC), higher = larger tumour) is 6 % of control; the T/C (endpoint: median tumor weight (est.), dose: 130.0 mg/kg/injection, schedule: Q01DX001 (ip), vehicle: carboxymethylcellulose (CMC), higher = larger tumour) was 8 % of control.

`O=NN(CCCl)C(=O)N[C@H]1CCCC[C@@H]1Cl`: the T/C by setting is: (endpoint: median survival time, dose: 9.0 mg/kg/injection, schedule: Q01DX001 (ip), vehicle: Klucel (hydroxypropylcellulose) (HPC), higher = longer survival) 112 % of control; (endpoint: median survival time, dose: 11.0 mg/kg/injection, schedule: Q01DX001 (ip), vehicle: gum acacia, higher = longer survival) 114 % of control; (endpoint: median survival time, dose: 17.0 mg/kg/injection, schedule: Q01DX001 (ip), vehicle: gum acacia, higher = longer survival) 107 % of control; (endpoint: median survival time, dose: 18.0 mg/kg/injection, schedule: Q01DX001 (ip), vehicle: Klucel (hydroxypropylcellulose) (HPC), higher = longer survival) 124 % of control; (endpoint: median survival time, dose: 25.0 mg/kg/injection, schedule: Q01DX001 (ip), vehicle: gum acacia, higher = longer survival) 95 % of control; (endpoint: median survival time, dose: 25.0 mg/kg/injection, schedule: Q04DX004 (ip), vehicle: gum acacia, higher = longer survival) 172 % of control. Moreover, the T/C was 159 % of control (endpoint: median survival time, dose: 45.0 mg/kg/injection, schedule: Q07DX002 (ip), vehicle: gum acacia, higher = longer survival); 122 % of control (endpoint: median survival time, dose: 72.0 mg/kg/injection, schedule: Q01DX001 (ip), vehicle: Klucel (hydroxypropylcellulose) (HPC), higher = longer survival); 68 % of control (endpoint: median tumor weight (est.), dose: 18.0 mg/kg/injection, schedule: Q01DX001 (ip), vehicle: gum acacia, higher = larger tumour); 23 % of control (endpoint: median tumor weight (est.), dose: 37.0 mg/kg/injection, schedule: Q01DX001 (ip), vehicle: gum acacia, higher = larger tumour); 7 % of control (endpoint: median tumor weight (est.), dose: 55.0 mg/kg/injection, schedule: Q01DX001 (ip), vehicle: gum acacia, higher = larger tumour).

For the compound `Nc1nc(=S)c2ncn(C3CC(O)C(CO)O3)c2[nH]1` (stereo not drawn), the T/C is 122 % of control under setting [1]; 118 % of control (endpoint: median survival time, dose: 8.0 mg/kg/injection, schedule: Q01DX009 (ip), vehicle: saline, higher = longer survival); 108 % of control (endpoint: median survival time, dose: 16.0 mg/kg/injection, schedule: Q01DX009 (ip), vehicle: saline, higher = longer survival); 113 % of control (endpoint: median survival time, dose: 64.0 mg/kg/injection, schedule: Q01DX009 (ip), vehicle: saline, higher = longer survival).

For `CCCCCCCCCCCC[N+](C)(C)Cc1ccccc1`, the T/C reads like this: (endpoint: median survival time, dose: 0.12 mg/kg/injection, schedule: Q01DX009 (ip), vehicle: saline, higher = longer survival) 111 % of control; (endpoint: median survival time, dose: 0.25 mg/kg/injection, schedule: Q01DX009 (ip), vehicle: saline, higher = longer survival) 94 % of control; (endpoint: median survival time, dose: 1.0 mg/kg/injection, schedule: Q01DX009 (ip), vehicle: saline, higher = longer survival) 97 % of control; (endpoint: median survival time, dose: 2.0 mg/kg/injection, schedule: Q01DX009 (ip), vehicle: saline, higher = longer survival) 97 % of control; under setting [1], 91 % of control; (endpoint: median survival time, dose: 125.0 micrograms/kg/injection, schedule: Q01DX009 (ip), vehicle: saline, higher = longer survival) 107 % of control. The T/C by setting is: (endpoint: median survival time, dose: 250.0 micrograms/kg/injection, schedule: Q01DX009 (ip), vehicle: saline, higher = longer survival) 93 % of control; (endpoint: median survival time, dose: 1000.0 micrograms/kg/injection, schedule: Q01DX009 (ip), vehicle: saline, higher = longer survival) 103 % of control; (endpoint: median survival time, dose: 2000.0 micrograms/kg/injection, schedule: Q01DX009 (ip), vehicle: saline, higher = longer survival) 109 % of control; (endpoint: median survival time, dose: 4000.0 micrograms/kg/injection, schedule: Q01DX009 (ip), vehicle: saline, higher = longer survival) 107 % of control; (endpoint: median survival time, dose: 8000.0 micrograms/kg/injection, schedule: Q01DX009 (ip), vehicle: saline, higher = longer survival) 96 % of control.

`NC(=S)N/N=C\c1ncnc2ccccc12`: the T/C runs as follows: (endpoint: median survival time, dose: 1.6 mg/kg/injection, schedule: Q01DX009 (ip), vehicle: Klucel (hydroxypropylcellulose) (HPC), higher = longer survival) 104 % of control; (endpoint: median survival time, dose: 3.12 mg/kg/injection, schedule: Q01DX009 (ip), vehicle: Klucel (hydroxypropylcellulose) (HPC), higher = longer survival) 103 % of control; (endpoint: median survival time, dose: 6.25 mg/kg/injection, schedule: Q01DX009 (ip), vehicle: Klucel (hydroxypropylcellulose) (HPC), higher = longer survival) 96 % of control and 108 % of control.
